In patent publication US9895346B2, “Applications of substituent benzyloxy group containing ether compounds for preparing antitumor drugs” (Sinochem Corporation, priority 2013, dated 2018):

Assays:
Type in all cases: cell-based, human
[1] = system: lung cancer cell line H520; assay: In vitro cell inhibition assay (crystal violet), lung cancer H520
Description: (§1) In vitro Cell inhibition assay is as follows:
(§2) The human cancer cell lines used for this assay were bladder cancer J82, T24, prostate cancer LNCap, PC-3, lung cancer A549, H157, H460, H520, colon cancer HCT8, HCT116, RkO, and leukemia HL-60, etc.
(§3) In vitro cell culture technology was selected for the determination of inhibition rate bladder cancer cell lines J82 and T24, prostate cancer cell lines LNCap and PC-3, lung cancer cell lines A549, H157, H460 and H520. 1000 to 3000 cells were inoculated to 24-well plate, followed by addition of 1 mL culture medium well known to researchers in this field to each well, the cells were cultured in 5% incubator for 24 hours at 37° C., then the different concentration compounds and controls were added to each well. It should be noted that the added volume is not more than 0.5% of total volume. After completion of addition, the cells continued being cultured in incubator for one week, the culture medium was removed and washed by cold PBS of 1 mL once, and then fixed for 10 minutes at room temperature with 1% formalin, followed by wash with PBS of 1 mL. After fixation, stain was carried out with 0.1% crystal violet for 30 minutes. 0.1% crystal violet was recycled. The stained cells were washed gently with deionized water, dried at room temperature and kepted. The inhibition rate was calculated according to the foiling equation. The controls are Selumetinib (AZD6244), Gefitinib, Cisplatin. Inhibition rate=number of left cells each treatment/number of left cells of untreated control×100%

[2] = system: lung cancer cell line A549; assay: In vitro cell inhibition assay (crystal violet), lung cancer A549
Description: as §1, §2, §3

[3] = system: lung cancer cell line H460; assay: In vitro cell inhibition assay (crystal violet), lung cancer H460
Description: as §1, §2, §3

Row | SMILES | Inhibition rate on human cancer cells ([1]; H520, 2.5 μM) | Inhibition rate on human cancer cells ([1]; H520, 5.0 μM) | Inhibition rate on human cancer cells ([2]; A549, 5.0 μM) | Inhibition rate on human cancer cells ([3]; H460, 1.0 μM) | Inhibition rate on human cancer cells ([3]; H460, 2.5 μM) | Inhibition rate on human cancer cells ([3]; H460, 5.0 μM) | Inhibition rate on human cancer cells ([2]; A549, 2.5 μM) | Inhibition rate on human cancer cells ([1]; H520, 1.0 μM) | Inhibition rate on human cancer cells ([1]; H520, 0.25 μM) | Inhibition rate on human cancer cells ([1]; H520, 0.5 μM) | Inhibition rate on human cancer cells ([2]; A549, 0.5 μM) | Inhibition rate on human cancer cells ([2]; A549, 1.0 μM) | Inhibition rate on human cancer cells ([3]; H460, 0.25 μM) | Inhibition rate on human cancer cells ([3]; H460, 0.5 μM)
1 | CCCCCCc1c(C)c2ccc(OCc3ccccc3C(=COC)C(=O)OC)cc2oc1=O [28-75] | 80% | 100% | 90% | 70% | 90% | 95% |  |  |  |  |  |  |  | 
2 | COC=C(C(=O)OC)c1ccccc1COc1ccc2c(-c3ccc(Br)cc3)cc(=O)oc2c1 [28-134] |  |  | 100% |  |  |  | 100% |  |  |  |  |  |  | 
3 | COC=C(C(=O)OC)c1ccccc1COc1ccc2c3c(c(=O)oc2c1C)CCC3 [28-126] | 90% | 95% | 90% |  | 90% | 95% | 85% | 70% |  |  |  |  |  | 
4 | CCc1c(C)c2ccc(OCc3ccccc3C(=COC)C(=O)OC)cc2oc1=O [Compound 28-18] | 100% | 100% | 100% | 95% | 95% | 95% | 100% | 100% | 50% | 95% | 90% | 100% | 80% | 90%
5 | CCc1cc(=O)oc2cc(OCc3ccccc3C(=COC)C(=O)OC)ccc12 [28-33] | 90% | 100% | 99% | 90% | 95% | 95% | 95% |  |  |  |  | 80% |  | 
6 | COC=C(C(=O)OC)c1ccccc1COc1ccc2c(-c3ccc(C)cc3)cc(=O)oc2c1 [28-136] |  |  | 100% |  |  |  | 100% |  |  |  |  |  |  | 
7 | COC=C(C(=O)OC)c1ccccc1COc1ccc2c(-c3ccc(OC)cc3)cc(=O)oc2c1 [28-137] |  |  | 100% |  |  |  | 100% |  |  |  |  |  |  | 
8 | COC=C(C(=O)OC)c1ccccc1COc1ccc2c(-c3ccc(Cl)cc3)cc(=O)oc2c1 [28-29] | 70% | 100% | 95% | 70% | 90% | 95% |  | 70% | 30% | 40% |  |  |  | 
9 | COC=C(C(=O)OC)c1ccccc1COc1ccc2c(-c3cccc(Cl)c3)cc(=O)oc2c1 [28-133] |  |  | 100% |  |  |  | 100% |  |  |  |  |  |  | 
10 | CCCc1cc(=O)oc2cc(OCc3ccccc3C(=COC)C(=O)OC)ccc12 [28-34] | 100% | 100% | 100% | 93% | 95% | 95% | 95% | 99% |  | 70% |  | 90% |  | 
11 | COC=C(C(=O)OC)c1ccccc1COc1ccc2c(-c3ccccc3Cl)cc(=O)oc2c1 [28-132] |  |  | 90% |  |  |  |  |  |  |  |  |  |  | 
12 | COC=C(C(=O)OC)c1ccccc1COc1ccc2c(-c3ccc(C(F)(F)F)cc3)cc(=O)oc2c1 [28-41] |  | 70% |  |  | 75% | 85% |  |  |  |  |  |  |  | 
13 | COC=C(C(=O)OC)c1ccccc1COc1ccc2c(-c3ccc(C#N)cc3)cc(=O)oc2c1 [28-135] |  |  | 80% |  |  |  |  |  |  |  |  |  |  | 
